This is an account of results in US6541463B1, “Inhibitors of type 5 and type 3 17β-hydroxysteroid dehydrogenase and methods for their use” (Endorecherche, Inc., priority 1998, dated 2003).

One assay addresses T1, androgen receptor (Rattus norvegicus, UniProt P15207).
T1 construct: from tissue; host or cells: ventral prostate cytosol of gonadectomized male Sprague-Dawley rats
T1 sequence (P15207 1-902): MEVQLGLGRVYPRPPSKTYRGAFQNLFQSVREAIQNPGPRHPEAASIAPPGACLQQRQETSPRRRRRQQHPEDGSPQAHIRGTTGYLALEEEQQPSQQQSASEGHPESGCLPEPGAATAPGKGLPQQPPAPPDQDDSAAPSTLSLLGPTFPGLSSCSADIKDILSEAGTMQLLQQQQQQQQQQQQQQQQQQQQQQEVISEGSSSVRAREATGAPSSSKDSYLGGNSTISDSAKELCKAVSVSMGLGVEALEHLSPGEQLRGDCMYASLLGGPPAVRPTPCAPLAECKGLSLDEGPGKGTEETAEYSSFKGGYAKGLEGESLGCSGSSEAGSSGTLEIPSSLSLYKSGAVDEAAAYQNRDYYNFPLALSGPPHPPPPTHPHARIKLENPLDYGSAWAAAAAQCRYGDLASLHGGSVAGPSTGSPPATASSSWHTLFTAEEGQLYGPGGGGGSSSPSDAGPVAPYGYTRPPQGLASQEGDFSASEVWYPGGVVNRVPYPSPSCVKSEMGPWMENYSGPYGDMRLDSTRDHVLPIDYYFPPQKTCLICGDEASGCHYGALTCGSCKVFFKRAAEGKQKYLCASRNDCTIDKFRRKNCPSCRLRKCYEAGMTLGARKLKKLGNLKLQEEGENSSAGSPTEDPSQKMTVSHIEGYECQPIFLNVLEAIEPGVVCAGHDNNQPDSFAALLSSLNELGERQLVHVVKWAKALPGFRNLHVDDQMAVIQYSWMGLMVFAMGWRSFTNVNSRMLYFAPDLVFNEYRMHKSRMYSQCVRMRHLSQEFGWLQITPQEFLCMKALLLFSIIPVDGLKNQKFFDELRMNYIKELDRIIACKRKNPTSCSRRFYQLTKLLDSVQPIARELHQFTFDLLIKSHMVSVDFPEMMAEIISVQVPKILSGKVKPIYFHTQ
Description: Androgen receptor (AR) assay: inhibition of [3H]R1881 binding, prostate cytosol. Conditions: Table 4′.

The next assay deals with progesterone receptor. Nature of the assay: Progesterone receptor assay: inhibition of [3H]R5020 binding, uterine cytosol. Also noted: species or system rat. Conditions: Table 4′.

For `COCCOc1cc2c(cc1C(N)=O)C1CC[C@@]3(C)C(CC[C@@]34CCC(C)(C)C(=O)O4)C1CC2` (stereo partly drawn) [EM-1424, 2-Carbamoyl-3-(2″-methoxyethyloxy)-1,3,5(10)-estratrien 17(R)-spiro-2′-(5′,5′-dimethyl-6′-oxo)tetrahydropyran], the inhibition at 1 µM at androgen receptor (E^−6) turned out to be 2%. This compound yielded an inhibition at 0.01 µM on androgen receptor (E^−8) of 2%. Moreover, in the assay on progesterone receptor, the “% Inhibition Progesterone Receptor E^−6” value worked out at 0% and the “% Inhibition Progesterone Receptor E^−8” value came to 1%.
For the compound `COCCOc1cc2c(cc1C(F)(F)F)[C@H]1CC[C@@]3(C)[C@@H](CC[C@@]34CCC(C)(C)C(=O)O4)[C@@H]1CC2` [EM-1438, 3-(2′-Methoxyethoxy)-2-trifluoromethyl-1,3,5(10)-estratrien-17(R)-spiro-2′-(5′,5′-dimethyl-6′-oxo)tetrahydropyran], the “% Inhibition Androgen Receptor E^−6” value at androgen receptor (E^−6) stood at 10%. Moreover, the “% Inhibition Androgen Receptor E^−8” value at androgen receptor (E^−8) was found to be 0%. For the same compound, in the assay with progesterone receptor, the “% Inhibition Progesterone Receptor E^−6” value was 0% and the “% Inhibition Progesterone Receptor E^−8” value was 0%.
